Where two headings read alike, the source gives them in different places. Starred links: 1 amine or outer side, 2 acyl side, 3 side chain; linkers in the order of their positions; H or OH if unused. Positions of bridges follow the written chain, without caps; N, C: chain ends. Non-standard residues stand in square brackets, D forms with d. Residues, ends and D or L forms follow the SMILES beside them. *: point of attachment. DOTA = O=C(O)CN1CCN(CC(=O)O)CCN(CC(=O)*)CCN(CC(=O)O)CC1; X66 = NC(=O)CCC(=O)Nc1cccc(C[C@H](N[*:1])C(=O)[*:2])c1; Phe(4-tBu) = CC(C)(C)c1ccc(C[C@H](N)C(=O)O)cc1; mXylylene = c1cc(C[*:1])cc(C[*:2])c1; X2 = O=C(CN1CCC(N[*:1])CC1)[*:2]; tBuAla = CC(C)(C)C[C@H](N)C(=O)O; Pen = CC(C)(S)[C@H](N)C(=O)O; X64 = c1cc2cc(CN*)ccc2cn1; Sar = CNCC(=O)O
Biological target: T1, CAIX-expressing human HT-29 colorectal cancer cells (Homo sapiens, UniProt Q16790)
T1 construct: CAIX-expressing human HT-29 colorectal cancer cells; host or cells: HT-29 human colorectal cancer cells
Assay: FACS binding assay (IC50 determination, competition with tracer 3BP-2776 or 3BP-4149)
Details: 4° C., 1 hour, read-out: pIC50 category (activity) (converted)
Procedure: In order to determine binding of compounds according to the present invention to CAIX-expressing cells, a FACS binding assay was established.
CAIX-expressing human HT-29 colorectal cancer cells (DSMZ, RRID: CVCL_0320) were cultured in McCoys's 5A modified medium (Biochrom, #F1015) including 10% fetal calf serum (FCS), 2 mM L-glutamine, 100 U/ml penicillin and 100 μg/mL streptomycin. Cells were detached with Accutase (Biolegend, #423201) and washed in FACS buffer (PBS including 1% FCS). Cells were diluted in FACS buffer to a final concentration of 500.000 cells per ml. 200 μL of the cell suspension were transferred to a u-shaped non-binding 96-well plate (Greiner) and cells were washed in ice-cold FACS buffer.
When biotinylated compounds were used an additional incubation step with 1 μg/mL APC-Streptavidin (Miltenyi; #130-106-791) in 50 μL FACS buffer for 30 minutes on ice was performed.
Cells were washed twice with ice-cold FACS buffer and analyzed in an Attune NxT flow cytometer (Thermo Fisher). Median fluorescence intensities (MFI) of the APC/Cy5-channel were calculated by Attune NxT software. MFI values were plotted against peptide concentration and four parameter logistic (4PL) curve fitting and EC50/pEC50 or IC50/pIC50 calculations were performed using ActivityBase software.

[1] = FACS binding assay, HT-29 cells, competition with tracer 3BP-2776 (10 nM, biotin-labeled)
[2] = FACS competition on HT-29 cells, Tracer ID 3BP-2776 (10 nM, biotin-labeled)

Row | Structure (SMILES) | IC50 [1] [nM] | IC50 [2] [nM] | also measured
1 | CC(C)C[C@@H]1NC(=O)[C@H](Cc2c[nH]c3ccccc23)NC(=O)[C@H](CCC(=O)NCc2ccc3cnccc3c2)NC(=O)[C@H]2CCCN2C(=O)[C@H](CCC(=O)O)NC(=O)[C@@H](NC(=O)[C@H](Cc2ccc(O)cc2)NC(=O)[C@@H](NC(=O)CN2CCC(NC(=O)CN3CCN(CC(=O)O)CCN(CC(=O)O)CCN(CC(=O)O)CC3)CC2)C(C)C)CSCc2cccc(c2)CSC[C@@H](C(N)=O)NC(=O)[C@H](CO)NC(=O)[C@H](Cc2c[nH]c3ccccc23)NC(=O)[C@H]([C@@H](C)O)NC1=O [3BP-4328] ({DOTA}-[X2]VYCE[dP]E(X64)WLTWSC-NH2; linker 4-13 via mXylylene) |  |  | IC50 (FACS binding assay, HT-29 cells, competition with tracer 3BP-4149 (3 nM, Cy5-labeled)): 100 to 794 nM
2 | CC(=O)N[C@H](C(=O)N[C@@H](Cc1ccc(O)cc1)C(=O)N[C@H]1CSCc2cccc(c2)CSC(C)(C)[C@@H](C(N)=O)NC(=O)[C@H](C)NC(=O)[C@H](Cc2c[nH]c3ccccc23)NC(=O)[C@H]([C@@H](C)O)NC(=O)[C@H](CC(C)(C)C)NC(=O)[C@H](Cc2c[nH]c3ccccc23)NC(=O)[C@H](CC(=O)O)NC(=O)CN(C)C(=O)[C@H](CCC(=O)O)NC1=O)C(C)C [3BP-3501] (Ac-VYCE[Sar]DW[tBuAla]TWA[Pen]-NH2; linker 3-12 via mXylylene) |  | < 10 | 
3 | CC(=O)N[C@H](C(=O)N[C@@H](Cc1ccc(O)cc1)C(=O)N[C@H]1CSCc2cccc(c2)CSC[C@@H](C(N)=O)NC(=O)[C@H](CCC(N)=O)NC(=O)[C@H](Cc2c[nH]c3ccccc23)NC(=O)[C@H](C)NC(=O)[C@H](CC(C)C)NC(=O)[C@H](Cc2c[nH]c3ccccc23)NC(=O)[C@H](CC(=O)O)NC(=O)CNC(=O)[C@H](CCC(=O)O)NC1=O)C(C)C [3BP-3056] (Ac-VYCEGDWLAWQC-NH2; linker 3-12 via mXylylene) |  | 10 to 79.4 | 
4 | CC(C)C[C@@H]1NC(=O)[C@H](Cc2cccc(NC(=O)CCC(N)=O)c2)NC(=O)[C@H](CC(=O)O)NC(=O)[C@H]2CCCN2C(=O)[C@H](CCC(=O)O)NC(=O)[C@@H](NC(=O)[C@H](Cc2ccc(O)cc2)NC(=O)[C@@H](NC(=O)CN2CCC(NC(=O)CN3CCN(CC(=O)O)CCN(CC(=O)O)CCN(CC(=O)O)CC3)CC2)C(C)C)CSCc2cccc(c2)CSC[C@@H](C(N)=O)NC(=O)[C@H](CO)NC(=O)[C@H](Cc2c[nH]c3ccccc23)NC(=O)[C@H]([C@@H](C)O)NC1=O [3BP-4238] ({DOTA}-[X2]VYCE[dP]D[X66]LTWSC-NH2; linker 4-13 via mXylylene) | 10 to 79.4 |  | 

Now from value to compound, other results behind:

Row | IC50 [1] [nM] | IC50 [2] [nM] | Structure (SMILES) | also measured
5 | < 10 |  | CC(C)C[C@@H]1NC(=O)[C@H](Cc2ccc(O)cc2)NC(=O)[C@H](CC(=O)O)NC(=O)[C@H]2CCCN2C(=O)[C@H](CCC(=O)O)NC(=O)[C@@H](NC(=O)[C@H](Cc2ccc(O)cc2)NC(=O)[C@@H](NC(=O)CN2CCC(NC(=O)CN3CCN(CC(=O)O)CCN(CC(=O)O)CCN(CC(=O)O)CC3)CC2)C(C)C)CSCc2cccc(c2)CSC[C@@H](C(N)=O)NC(=O)[C@H](CO)NC(=O)[C@H](Cc2c[nH]c3ccccc23)NC(=O)[C@H]([C@@H](C)O)NC1=O [3BP-4136] ({DOTA}-[X2]VYCE[dP]DYLTWSC-NH2; linker 4-13 via mXylylene) | 
6 | 10 to 79.4 |  | CC(C)C[C@@H]1NC(=O)[C@H](Cc2ccc(C(C)(C)C)cc2)NC(=O)[C@H](CC(=O)O)NC(=O)[C@H]2CCCN2C(=O)[C@H](CCC(=O)O)NC(=O)[C@@H](NC(=O)[C@H](Cc2ccc(O)cc2)NC(=O)[C@@H](NC(=O)CN2CCC(NC(=O)CN3CCN(CC(=O)O)CCN(CC(=O)O)CCN(CC(=O)O)CC3)CC2)C(C)C)CSCc2cccc(c2)CSC[C@@H](C(N)=O)NC(=O)[C@H](CO)NC(=O)[C@H](Cc2c[nH]c3ccccc23)NC(=O)[C@H]([C@@H](C)O)NC1=O [3BP-4160] ({DOTA}-[X2]VYCE[dP]D[Phe(4-tBu)]LTWSC-NH2; linker 4-13 via mXylylene) | 

Source: patent US20250339569A1, “CARBONIC ANHYDRASE IX LIGANDS” (priority 2021, published 2025)
